Here are results for one compound from patent US8921403B2, “Combinations of imazalil and hydroxypyridones” (Janssen Pharmaceutica, NV, priority 2007, dated 2014).

The test system of this assay is Staphylococcus aureus (g+) LMG 8064. Nature of the assay: poison plate assay (bacteria). In kind it is cell-based. Conditions: LMG8064, 120 h, ppm total active ingredient, Tryptose Agar, 27° C., 70% relative humidity, growth evaluated after five days, ratio % (I) + % (II-a), read-out: MIC-values (minimum inhibitory concentration) in ppm. The text has this:
When the Synergy Index is greater than 1.0, antagonism is indicated. When the SI is equal to 1.0, additivity is indicated.

For `C=CCOC(Cn1ccnc1)c1ccc(Cl)cc1Cl` (stereo not shown) [100 + 0], the MIC worked out at 25 µg/mL.
